Experimental data: ChEMBL document CHEMBL1641458, “A journey from benzanilides to dithiobenzanilides: Synthesis of selective spasmolytic compounds” (Bioorg Med Chem, 2011)
pIC50: −log10 of the molar value.

Assays:
Ileum = experiment: tissue or blood; type: functional, tissue-based; details: Cavia porcellus, 0.75 h
[1] = Antispasmodic activity in guinea pig arteria pulmonalis ring assessed as inhibition of 60 mM KCl-induced contraction after 45 mins; type: functional, Cavia porcellus
Aorta = experiment: tissue or blood; type: functional, tissue-based; details: Cavia porcellus, 0.75 h

pIC50 (Ileum): < 4.00 | pIC50 [1]: < 4.00 | pIC50 (Aorta): < 4.00
Structure (SMILES): COc1cc(C(=S)Nc2cccc(NC(=S)c3cc(OC)c(OC)c(OC)c3)c2)cc(OC)c1OC
